Where two headings read alike, the source gives them in different places.

Data set [1] deals with T1, TRKA (Homo sapiens (Human), UniProt P04629). Put plainly: Isolated TRK enzyme assay (HTRF KinEASE-TK), TRKA. The data set is classed as biochemical. The note with it: isolated TRKA enzyme; read-out: TrkA enzyme potency.
Target sequence in this assay (P04629 441-796): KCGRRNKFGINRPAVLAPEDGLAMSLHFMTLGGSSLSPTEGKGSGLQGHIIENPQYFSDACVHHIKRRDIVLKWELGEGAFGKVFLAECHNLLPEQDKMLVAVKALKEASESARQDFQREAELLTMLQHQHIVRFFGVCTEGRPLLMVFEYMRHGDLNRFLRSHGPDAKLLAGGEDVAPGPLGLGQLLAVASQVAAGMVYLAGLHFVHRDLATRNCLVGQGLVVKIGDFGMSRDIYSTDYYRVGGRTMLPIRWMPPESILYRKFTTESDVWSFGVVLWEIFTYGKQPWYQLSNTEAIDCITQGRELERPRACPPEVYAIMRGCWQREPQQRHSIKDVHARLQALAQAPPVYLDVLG
The target in data set [2] is T2, TRKB (Homo sapiens (Human), UniProt Q16620). Put plainly: biochemical.
Data set [3] concerns the target T1, TRKA. The data set can be described thus: Cell based DiscoveRx PathHunter antagonist assay, TRKA cell line. As to conditions: read-out: TrkA cell potency. As to the method:
(§1) After the Detection Reagent addition, plates are covered and incubated at room temperature for 60 minutes. […] Test compound data are expressed as percentage inhibition defined by HPE and ZPE values for each plate. Percentage inhibition in the presence of test compound is plotted against compound concentration on a log scale to determine an IC50 from the resultant sigmoid curve. Cell Based Assays were carried out using Cell lines from DiscoveRx utilising their PathHunter technology and reagents in an antagonist assay:
(§2) The assays are based upon DiscoveRx's proprietary Enzyme Fragment Complementation (EFC) technology. In the case of the TRK cell lines, the enzyme acceptor (EA) protein is fused to a SH2 protein and the TRK receptor of interest has been tagged with a Prolink tag.
(§3) Upon neurotrophin binding, the TRK receptor becomes phosphorylated, and the tagged SH2 protein binds.
(§4) This means that the IC50 is a good measure of affinity and should be unaffected by concentration neurotrophin stimulant.
(§5) Cryopreserved PathHunter cells are used from either in-house produced batches or bulk batches bought directly from DiscoveRx. Cryopreserved cells are resuscitated, spun 1000 rpm for 4 min to remove freezing media, and resuspended in MEM+0.5% horse serum (both Invitrogen) to 5e^5 cells/ml. The cells are then plated using a Multidrop into Greiner white tissue culture treated plates at 20 ul/well and incubated for 24 h at 37° C., 5% CO2, high humidity. On the day of the assay, the cell plates are allowed to cool to room temperature for 30 min prior to the assay.
(§6) Plates containing 1 ul of serially diluted compound, standard and HPE/ZPE are diluted 1/66 in assay buffer (PBS minus Ca^2+, minus Mg^2+ with 0.05% pluronic F127) using a Wellmate. […] The plates are left at room temperature for a further 2 hours before addition of 10 ul of the DiscoveRx PathHunter detection reagent (made up by adding 1 part Galacton Star, 5 parts Emerald II and 19 parts Cell Assay Buffer as per the manufacturer's instructions).
(§7) After reagent addition, plates are covered and incubated at room temperature for 60 minutes. Luminescence signal is read using an Envision. Test compound data are expressed as percentage inhibition defined by HPE and ZPE values for each plate. Percentage inhibition in the presence of test compound is plotted against compound concentration on a log scale to determine an […] from the resultant sigmoid curve.
Target sequence in this assay (P04629 33-796): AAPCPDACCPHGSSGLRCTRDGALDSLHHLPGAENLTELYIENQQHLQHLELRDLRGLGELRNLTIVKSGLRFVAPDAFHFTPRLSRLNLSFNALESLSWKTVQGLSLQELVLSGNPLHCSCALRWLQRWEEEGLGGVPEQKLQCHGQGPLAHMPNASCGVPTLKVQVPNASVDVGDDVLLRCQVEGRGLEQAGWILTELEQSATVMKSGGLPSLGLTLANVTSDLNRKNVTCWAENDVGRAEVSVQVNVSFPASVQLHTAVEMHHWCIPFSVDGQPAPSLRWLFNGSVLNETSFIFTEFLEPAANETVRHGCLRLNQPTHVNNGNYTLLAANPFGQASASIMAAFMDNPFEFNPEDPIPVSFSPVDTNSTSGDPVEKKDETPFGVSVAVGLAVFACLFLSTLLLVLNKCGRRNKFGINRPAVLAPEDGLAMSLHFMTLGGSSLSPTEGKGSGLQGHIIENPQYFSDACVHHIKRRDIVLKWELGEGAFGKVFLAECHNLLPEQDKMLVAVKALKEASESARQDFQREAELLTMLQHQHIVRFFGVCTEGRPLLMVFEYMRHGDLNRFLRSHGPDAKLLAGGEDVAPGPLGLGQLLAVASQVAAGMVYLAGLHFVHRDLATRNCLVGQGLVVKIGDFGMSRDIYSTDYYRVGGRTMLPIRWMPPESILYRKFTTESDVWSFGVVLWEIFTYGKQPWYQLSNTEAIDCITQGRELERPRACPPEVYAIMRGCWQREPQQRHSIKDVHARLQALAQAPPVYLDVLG

The target of another data set is MDR1 (Homo sapiens (Human), UniProt P08183). The data set can be described thus: MDCK-MDR1 assay (in vitro brain penetration). The note with it: human; for Papp B→A: read-out: MDCK MDR1 Papp BA; for Papp A→B: MDCK-MDR1, A to B, read-out: MDCK MDR1 Papp AB. The data set is classed as in vitro ADME. From the text: MDCK-MDR1: MDCK-MDR1 data were collected according to the method described in “Are MDCK Cells Transfected with the Human MDR1 Gene a Good Model of the Human Intestinal Mucosa?”
http://www.springerlink.com/content/qfhqlqbr4fnp3 khf/fulltext.pdf

The target of data set [4] is T2, TRKB. The data set can be described thus: cell-based. As to conditions: TrkB cell potency, TRKB PathHunter cell line. As to the method:
as §1, §2, §3, §4, §5, §6, §7

Setting [5] is: isolated TRKB enzyme, read-out: TrkB enzyme potency.

T2 sequence (Q16620 32-822 limits assumed): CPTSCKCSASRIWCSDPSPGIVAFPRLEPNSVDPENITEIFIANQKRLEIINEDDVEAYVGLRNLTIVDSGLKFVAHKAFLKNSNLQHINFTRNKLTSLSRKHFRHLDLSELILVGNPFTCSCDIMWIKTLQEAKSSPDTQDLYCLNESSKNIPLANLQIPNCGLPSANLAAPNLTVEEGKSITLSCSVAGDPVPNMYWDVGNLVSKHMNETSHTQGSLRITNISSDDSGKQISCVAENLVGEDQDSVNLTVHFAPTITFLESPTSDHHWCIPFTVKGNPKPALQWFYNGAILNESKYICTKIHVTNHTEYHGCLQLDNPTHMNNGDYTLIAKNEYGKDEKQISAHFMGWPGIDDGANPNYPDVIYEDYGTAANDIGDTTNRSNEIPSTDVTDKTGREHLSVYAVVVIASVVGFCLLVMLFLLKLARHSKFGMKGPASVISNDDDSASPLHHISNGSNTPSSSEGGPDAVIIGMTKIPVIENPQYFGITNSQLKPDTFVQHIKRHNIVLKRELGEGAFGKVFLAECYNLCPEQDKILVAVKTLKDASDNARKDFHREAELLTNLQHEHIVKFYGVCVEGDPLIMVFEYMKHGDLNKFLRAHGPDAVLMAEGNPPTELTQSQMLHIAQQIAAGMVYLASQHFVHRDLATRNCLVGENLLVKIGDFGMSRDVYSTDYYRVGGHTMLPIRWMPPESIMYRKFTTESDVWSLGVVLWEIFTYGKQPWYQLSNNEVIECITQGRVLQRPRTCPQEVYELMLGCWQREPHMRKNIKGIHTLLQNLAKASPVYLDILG
Chain of MDR1 (P08183 whole entry): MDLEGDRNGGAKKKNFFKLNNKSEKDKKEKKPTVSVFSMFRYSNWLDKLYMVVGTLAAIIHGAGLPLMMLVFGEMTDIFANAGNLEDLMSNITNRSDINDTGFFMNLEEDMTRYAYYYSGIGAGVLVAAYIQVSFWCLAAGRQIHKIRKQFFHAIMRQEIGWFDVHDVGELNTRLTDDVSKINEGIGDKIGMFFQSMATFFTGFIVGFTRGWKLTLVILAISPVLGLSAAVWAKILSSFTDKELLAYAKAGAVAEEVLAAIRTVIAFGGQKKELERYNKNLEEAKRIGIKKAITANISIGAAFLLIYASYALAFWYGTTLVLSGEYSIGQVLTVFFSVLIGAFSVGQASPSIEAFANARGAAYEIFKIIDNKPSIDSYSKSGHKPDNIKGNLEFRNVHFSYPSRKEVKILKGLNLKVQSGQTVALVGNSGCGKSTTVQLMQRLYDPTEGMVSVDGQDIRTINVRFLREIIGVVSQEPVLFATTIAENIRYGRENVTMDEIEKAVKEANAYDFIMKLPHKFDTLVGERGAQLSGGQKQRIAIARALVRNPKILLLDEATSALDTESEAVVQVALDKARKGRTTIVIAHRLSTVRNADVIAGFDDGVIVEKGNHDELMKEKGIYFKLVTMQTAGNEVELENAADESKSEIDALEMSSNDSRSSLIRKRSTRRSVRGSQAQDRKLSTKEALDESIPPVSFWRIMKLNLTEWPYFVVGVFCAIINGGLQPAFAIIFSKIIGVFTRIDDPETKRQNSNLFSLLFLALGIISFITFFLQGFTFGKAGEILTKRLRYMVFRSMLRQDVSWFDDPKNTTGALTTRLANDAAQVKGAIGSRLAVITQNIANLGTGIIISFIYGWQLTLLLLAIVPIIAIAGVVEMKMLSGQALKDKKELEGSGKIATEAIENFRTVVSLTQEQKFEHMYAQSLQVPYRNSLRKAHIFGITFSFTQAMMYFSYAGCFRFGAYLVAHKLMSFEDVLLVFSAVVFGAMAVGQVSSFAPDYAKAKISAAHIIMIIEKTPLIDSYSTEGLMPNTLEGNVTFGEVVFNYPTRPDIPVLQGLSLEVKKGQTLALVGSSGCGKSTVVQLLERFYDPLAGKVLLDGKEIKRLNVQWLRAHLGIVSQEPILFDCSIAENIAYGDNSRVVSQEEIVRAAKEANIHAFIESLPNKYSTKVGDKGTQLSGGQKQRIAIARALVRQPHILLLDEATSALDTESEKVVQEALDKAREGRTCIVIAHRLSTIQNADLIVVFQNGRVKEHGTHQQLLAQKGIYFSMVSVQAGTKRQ

For the molecule `CC(CO)n1cc(C(=O)c2cncc(NC(=O)Cc3ccc(Cl)cn3)c2)c2cnc(N)nc21` (single isomer, unassigned) [Example 35, N-(5-{[2-amino-7-(2-hydroxy-1-methylethyl)-7H-pyrrolo[2,3-d]pyrimidin-5-yl]carbonyl}pyridin-3-yl)-2-(5-chloropyridin-2-yl)acetamide], the IC50 came to 8.9 nM at TRKA [1], 223 nM on TRKB [2] (setting [5]), 103 nM on TRKA [3] and 37 nM against TRKB [4]. The Papp B→A on MDR1 (MDCK-MDR1, MDCK-MDR1, B to A) is 5.3 ×10⁻⁶ cm/s. Further, the Papp A→B on MDR1 is under 1 ×10⁻⁶ cm/s.
In the case of `CC(C)(C)n1cc(C(=O)c2cncc(NC(=O)Cn3cc(C4CC4)cn3)c2)c2cncnc21` [Example 7, N-{5-[(7-tert-butyl-7H-pyrrolo[2,3-d]pyrimidin-5-yl)carbonyl]pyridin-3-yl}-2-(4-cyclopropyl-1H-pyrazol-1-yl)acetamide], the IC50 amounted to 11 nM on TRKA [1], 41 nM at TRKB [2] (setting [5]), 2.1 nM at TRKA [3] and 0.8 nM against TRKB [4]. Besides, the Papp B→A at MDR1 (MDCK-MDR1, MDCK-MDR1, B to A) is 20 ×10⁻⁶ cm/s. The Papp A→B on MDR1 was determined as 5.6 ×10⁻⁶ cm/s.
On to `C[C@@H](CO)n1cc(C(=O)c2cncc(NC(=O)Cn3ccc(C(F)(F)F)n3)c2)c2cncnc21` [Example 12, N-[5-({7-[(1S)-2-hydroxy-1-methylethyl]-7H-pyrrolo[2,3-d]pyrimidin-5-yl}carbonyl)pyridin-3-yl]-2-[3-(trifluoromethyl)-1H-pyrazol-1-yl]acetamide], for which the IC50 came to 9.2 nM at TRKA [1], 547 nM at TRKB [2] (setting [5]), 68 nM at TRKA [3] and 22 nM at TRKB [4]. Besides, at MDR1 (MDCK-MDR1, MDCK-MDR1, B to A), the Papp B→A turned out to be 3.1 ×10⁻⁶ cm/s. The Papp A→B on MDR1 was under 1 ×10⁻⁶ cm/s.
Consider `C[C@@H](CO)n1cc(C(=O)c2cncc(NC(=O)Cn3cc(C(F)(F)F)nn3)c2)c2cncnc21` [Example 13, N-[5-({7-[(1S)-2-hydroxy-1-methylethyl]-7H-pyrrolo[2,3-d]pyrimidin-5-yl}carbonyl)pyridin-3-yl]-2-[4-(trifluoromethyl)-1H-1,2,3-triazol-1-yl]acetamide], for which the IC50 at TRKA [1] came to 20 nM; at TRKB [2] (setting [5]) it was 449 nM; on TRKA [3] it was 1130 nM; on TRKB [4], 184 nM. Further, the Papp B→A on MDR1 (MDCK-MDR1, MDCK-MDR1, B to A) is 1 ×10⁻⁶ cm/s. At MDR1, the Papp A→B is under 1 ×10⁻⁶ cm/s.
In the case of `C[C@@H](CO)n1cc(C(=O)c2cncc(NC(=O)Cn3nc4ccccc4n3)c2)c2cncnc21` [Example 15, 2-(2H-benzotriazol-2-yl)-N-[5-({7-[(1S)-2-hydroxy-1-methylethyl]-7H-pyrrolo[2,3-d]pyrimidin-5-yl}carbonyl)pyridin-3-yl]acetamide], the IC50 on TRKA [1] was found to be 17 nM; at TRKB [2] (TrkB enzyme potency), 514 nM; at TRKA [3] it was 143 nM; against TRKB [4] it was 40 nM. The Papp A→B on MDR1 is under 1 ×10⁻⁶ cm/s. Moreover, the Papp B→A at MDR1 (MDCK-MDR1, B to A) was determined as 15 ×10⁻⁶ cm/s.
Turning to `C[C@H](CO)n1cc(C(=O)c2cncc(NC(=O)Cc3ccc(F)cn3)c2)c2cncnc21` [Example 19, 2-(5-fluoropyridin-2-yl)-N-[5-({7-[(1R)-2-hydroxy-1-methylethyl]-7H-pyrrolo[2,3-d]pyrimidin-5-yl}carbonyl)pyridin-3-yl]acetamide], the IC50 was found to be 249 nM at TRKA [1], 5480 nM against TRKB [2] (TrkB enzyme potency), 1840 nM at TRKA [3] and 206 nM against TRKB [4]. The Papp A→B on MDR1 was under 1 ×10⁻⁶ cm/s. The Papp B→A at MDR1 (MDCK-MDR1, B to A) was found to be 8.5 ×10⁻⁶ cm/s.
For `C[C@H](CO)n1cc(C(=O)c2cncc(NC(=O)Cc3ccc(C(F)(F)F)cc3)c2)c2cncnc21` [Example 20, N-[5-({7-[(1R)-2-hydroxy-1-methylethyl]-7H-pyrrolo[2,3-d]pyrimidin-5-yl}carbonyl)pyridin-3-yl]-2-[4-(trifluoromethyl)phenyl]acetamide], the IC50 is 14 nM on TRKA [1], 635 nM on TRKB [2] (setting [5]), 22 nM on TRKA [3] and 19 nM on TRKB [4]. Besides, the Papp B→A on MDR1 (MDCK-MDR1, MDCK-MDR1, B to A) is 17 ×10⁻⁶ cm/s. Also, on MDR1, the Papp A→B is under 1 ×10⁻⁶ cm/s.
For the molecule `C[C@H](CO)n1cc(C(=O)c2cncc(NC(=O)Cn3cc(C(F)(F)F)nn3)c2)c2cncnc21` [Example 21, N-[5-({7-[(1R)-2-hydroxy-1-methylethyl]-7H-pyrrolo[2,3-d]pyrimidin-5-yl}carbonyl)pyridin-3-yl]-2-[4-(trifluoromethyl)-1H-1,2,3-triazol-1-yl]acetamide], the results for the IC50 on TRKA [1], at TRKA [3] and against TRKB [4] were 71 nM, 5740 nM and 1770 nM, respectively. Further, on MDR1 (MDCK-MDR1, MDCK-MDR1, B to A), the Papp B→A turned out to be 1.3 ×10⁻⁶ cm/s. The Papp A→B on MDR1 is under 1 ×10⁻⁶ cm/s.
Turning to `C[C@H](CO)n1cc(C(=O)c2cncc(NC(=O)Cn3ccc(C(F)(F)F)n3)c2)c2cncnc21` [Example 22, N-[5-({7-[(1R)-2-hydroxy-1-methylethyl]-7H-pyrrolo[2,3-d]pyrimidin-5-yl}carbonyl)pyridin-3-yl]-2-[3-(trifluoromethyl)-1H-pyrazol-1-yl]acetamide], the values for the IC50 at TRKA [1], on TRKA [3] and on TRKB [4] were 25 nM, 596 nM and 190 nM, respectively. Also, the Papp B→A on MDR1 (MDCK-MDR1, MDCK-MDR1, B to A) came out at 6.9 ×10⁻⁶ cm/s. The Papp A→B at MDR1 was under 1 ×10⁻⁶ cm/s.
Taken in the same sequence, the figures for `C[C@H](CO)n1cc(C(=O)c2cncc(NC(=O)Cc3ccc(Cl)cn3)c2)c2cncnc21` [Example 23, 2-(5-chloropyridin-2-yl)-N-[5-({7-[(1R)-2-hydroxy-1-methylethyl]-7H-pyrrolo[2,3-d]pyrimidin-5-yl}carbonyl)pyridin-3-yl]acetamide] were 26 nM, 93 nM, 52 nM, 31 ×10⁻⁶ cm/s and under 1 ×10⁻⁶ cm/s.
Turning to `CC(CO)n1cc(C(=O)c2cncc(NC(=O)Cn3cc(C4CC4)cn3)c2)c2cncnc21` (stereo not shown) [Example 25, 2-(4-Cyclopropyl-1H-pyrazol-1-yl)-N-(5-{[7-(2-hydroxy-1-methylethyl)-7H-pyrrolo[2,3-d]pyrimidin-5-yl]carbonyl}pyridin-3-yl)acetamide], the IC50 on TRKA [1] was determined as 24 nM; on TRKB [2] (setting [5]), 433 nM; at TRKA [3], 65 nM; on TRKB [4], 19 nM. For the same molecule, the Papp B→A on MDR1 (MDCK-MDR1, MDCK-MDR1, B to A) was 13 ×10⁻⁶ cm/s. For the same molecule, the Papp A→B at MDR1 was under 1 ×10⁻⁶ cm/s.
For the molecule `CC(C)(CO)n1cc(C(=O)c2cncc(NC(=O)Cn3cc(C4CC4)nn3)c2)c2cncnc21` [Example 31, 2-(4-cyclopropyl-1H-1,2,3-triazol-1-yl)-N-(5-{[7-(2-hydroxy-1,1-dimethylethyl)-7H-pyrrolo[2,3-d]pyrimidin-5-yl]carbonyl}pyridin-3-yl)acetamide], the results for the IC50 on TRKA [1], at TRKA [3] and against TRKB [4] were 18 nM, 401 nM and 198 nM, respectively. In addition, the Papp B→A at MDR1 (MDCK-MDR1, MDCK-MDR1, B to A) amounted to 2.6 ×10⁻⁶ cm/s. In addition, the Papp A→B on MDR1 was under 1 ×10⁻⁶ cm/s.
The matching figures for `CC(C)(CO)n1cc(C(=O)c2cncc(NC(=O)Cn3cc(C(F)(F)F)nn3)c2)c2cnc(N)nc21` [Example 54, N-(5-{[2-Amino-7-(2-hydroxy-1,1-dimethylethyl)-7H-pyrrolo[2,3-d]pyrimidin-5-yl]carbonyl}pyridin-3-yl)-2-[4-(trifluoromethyl)-1H-1,2,3-triazol-1-yl]acetamide]: 6.7 nM, 368 nM, 174 nM, 1.3 ×10⁻⁶ cm/s and under 1 ×10⁻⁶ cm/s.

The record behind these values is patent US8846698B2, “Pyrrolo[2,3-d]pyrimidine tropomysin-related kinase inhibitors” (Pfizer Limited, priority 2011, dated 2014).
